Results from patent US8772276B2, “Alkyne benzotriazole derivatives” (Merck Sharp & Dohme Corp., priority 2011, dated 2014).

The compounds below were run against T1, recombinant human mGluR2 (Homo sapiens, UniProt Q14416) (assay: FLIPR Ca2+ mobilization assay, mGluR2 potentiation). Settings: CHO dhfr- cells expressing human mGluR2 and Gα16, EC20 concentration of glutamate (900 nM).
T1 construct: expressed in transfected cells
Assay type: cell-based
Protocol: Potencies are determined as follows. The compounds of the present invention may be tested in a fluorescence laser imaging plate reader (FLIPR) based assay. This assay is a common functional assay to monitor Ca^2+ mobilization in whole cells expressing recombinant receptor coupled with a promiscuous G-protein. CHO dhfr-cells stably expressing recombinant human mGluR2 and Gα16 loaded with Fluo-4 AM (Invitrogen, Carlsbad Calif.) are treated with varying concentrations of compounds and the Ca^2+ response is monitored on a FLIPR384 (Molecular Devices, Sunnydale Calif.) for agonist activity. The potentiation response is monitored after a subsequent addition of an EC20 concentration of glutamate (900 nM). The maximum calcium response at each concentration of compound for agonism or potentiation are plotted as dose responses curves fitted with a four parameters logistic equation giving EC50 and Hill coefficient using the iterative non linear curve fitting software program.

T1 sequence (Q14416 19-872): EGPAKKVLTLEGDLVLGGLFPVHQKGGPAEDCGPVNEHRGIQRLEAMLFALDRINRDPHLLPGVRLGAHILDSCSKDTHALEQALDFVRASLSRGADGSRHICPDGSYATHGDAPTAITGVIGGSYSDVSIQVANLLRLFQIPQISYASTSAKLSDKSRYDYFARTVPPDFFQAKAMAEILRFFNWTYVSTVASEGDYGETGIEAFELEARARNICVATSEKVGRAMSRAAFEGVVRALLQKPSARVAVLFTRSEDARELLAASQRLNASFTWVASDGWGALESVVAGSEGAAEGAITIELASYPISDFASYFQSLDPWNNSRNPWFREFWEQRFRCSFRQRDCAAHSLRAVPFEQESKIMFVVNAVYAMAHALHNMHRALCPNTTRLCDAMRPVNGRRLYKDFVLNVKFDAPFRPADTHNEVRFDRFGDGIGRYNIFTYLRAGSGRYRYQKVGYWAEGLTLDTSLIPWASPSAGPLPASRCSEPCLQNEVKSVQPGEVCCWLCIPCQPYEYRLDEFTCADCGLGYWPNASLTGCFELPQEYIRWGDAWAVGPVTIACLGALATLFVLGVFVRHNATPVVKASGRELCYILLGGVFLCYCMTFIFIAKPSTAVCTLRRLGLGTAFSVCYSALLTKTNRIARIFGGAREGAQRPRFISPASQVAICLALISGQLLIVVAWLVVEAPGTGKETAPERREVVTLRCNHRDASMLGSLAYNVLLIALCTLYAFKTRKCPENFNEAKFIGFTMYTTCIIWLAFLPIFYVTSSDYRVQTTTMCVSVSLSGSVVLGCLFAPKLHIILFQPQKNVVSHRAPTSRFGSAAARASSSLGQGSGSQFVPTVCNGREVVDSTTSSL

| EC50 | SMILES |
| --- | --- |
| 282 nM | C=CC#Cc1ccc2c(nnn2CC2CC2)c1Cl [Example 31, 5-but-3-en-1-yn-1-yl-4-chloro-1-(cyclopropylmethyl)-1H-benzotriazole] |
| 85 nM | Clc1c(C#Cc2ccccn2)ccc2c1nnn2CC1CC1 [Example 9, 4-chloro-1-(cyclopropylmethyl)-5-(pyridin-2-ylethynyl)-1H-benzotriazole] |
| 34 nM | Clc1c(C#Cc2cccnc2)ccc2c1nnn2CC1CC1 [Example 7, 4-chloro-1-(cyclopropylmethyl)-5-(pyridin-3-ylethynyl)-1H-benzotriazole] |
| 388 nM | OCCC#Cc1ccc2c(nnn2CC2CC2)c1Cl [Example 12, 4-[4-chloro-1-(cyclopropylmethyl)-1H-benzotriazol-5-yl]but-3-yn-1-ol] |
| 180 nM | OCCCC#Cc1ccc2c(nnn2CC2CC2)c1Cl [Example 14, 5-[4-chloro-1-(cyclopropylmethyl)-1H-benzotriazol-5-yl]pent-4-yn-1-ol] |
| 64 nM | Clc1c(C#Cc2ccncc2)ccc2c1nnn2CC1CC1 [Example 8, 4-chloro-1-(cyclopropylmethyl)-5-(pyridin-4-ylethynyl)-1H-benzotriazole] |
| 57 nM | OCc1cncc(C#Cc2ccc3c(nnn3CC3CC3)c2Cl)c1 [Example 22, (5-{[4-chloro-1-(cyclopropylmethyl)-1H-benzotriazol-5-yl]ethynyl}pyridin-3-yl)methanol] |
| 415 nM | CN1C(=O)CN(CC#Cc2ccc3c(nnn3CC3CC3)c2Cl)C1=O [Example 30, 1-{3-[4-Chloro-1-(cyclopropylmethyl)-1H-benzotriazol-5-yl]prop-2-yn-1-yl}-3-methylimidazolidine-2,4-dione] |
| 80 nM | Clc1c(C#Cc2cnccn2)ccc2c1nnn2CC1CC1 [Example 10, 4-chloro-1-(cyclopropylmethyl)-5-(pyrazin-2-ylethynyl)-1H-benzotriazole] |
| 576 nM | OCC#Cc1ccc2c(nnn2CC2CC2)c1Cl [Example 13, 3-[4-chloro-1-(cyclopropylmethyl)-1H-benzotriazol-5-yl]prop-2-yn-1-ol] |
| 292 nM | Clc1cncc(C#Cc2ccc3c(nnn3CC3CC3)c2Cl)c1 [Example 19, 4-chloro-5-[(5-chloropyridin-3-yl)ethynyl]-1-(cyclopropylmethyl)-1H-benzotriazole] |
| 98 nM | Nc1cncc(C#Cc2ccc3c(nnn3CC3CC3)c2Cl)c1 [Example 23, 5-{[4-chloro-1-(cyclopropylmethyl)-1H-benzotriazol-5-yl]ethynyl}pyridin-3-amine] |
| 57 nM | Cc1cncc(C#Cc2ccc3c(nnn3CC3CC3)c2Cl)c1 [Example 18, 4-chloro-1-(cyclopropylmethyl)-5-[(5-methylpyridin-3-yl)ethynyl]-1H-benzotriazole] |
| 203 nM | Clc1c(C#Cc2ccnnc2)ccc2c1nnn2CC1CC1 [Example 11, 4-chloro-1-(cyclopropylmethyl)-5-(pyridazin-4-ylethynyl)-1H-benzotriazole] |
| 153 nM | CN1C(=O)CN(CCCC#Cc2ccc3c(nnn3CC3CC3)c2Cl)C1=O [Example 32, 1-{5-[4-chloro-1-(cyclopropylmethyl)-1H-benzotriazol-5-yl]pent-4-yn-1-yl}-3-methylimidazolidine-2,4-dione] |
| 76 nM | Fc1cncc(C#Cc2ccc3c(nnn3CC3CC3)c2Cl)c1 [Example 21, 4-chloro-1-(cyclopropylmethyl)-5-[(5-fluoropyridin-3-yl)ethynyl]-1H-benzotriazole] |

Further lines, the compound ahead of its results:

| SMILES | EC50 |
| --- | --- |
| NC(=O)c1cncc(C#Cc2ccc3c(nnn3CC3CC3)c2Cl)c1 [Example 24, 5-{[4-chloro-1-(cyclopropylmethyl)-1H-benzotriazol-5-yl]ethynyl}pyridine-3-carboxamide] | 42 nM |
| CC(C)(C)Cn1nnc2c(Br)c(C#CC3CCN(C(=O)OC(C)(C)C)CC3)ccc21 [Example 1, tert-Butyl 4-{[4-bromo-1-(2,2-dimethylpropyl)-1H-benzotriazol-5-yl]ethynyl}piperidine-1-carboxylate] | 100 nM |
| Fc1cc(C#Cc2ccc3c(nnn3CC3CC3)c2Cl)ccn1 [Example 25, 4-chloro-1-(cyclopropylmethyl)-5-[(2-fluoropyridin-4-yl)ethynyl]-1H-benzotriazole] | 77 nM |
| Cc1cc(C#Cc2ccc3c(nnn3CC3CC3)c2Cl)ccn1 [Example 27, 4-chloro-1-(cyclopropylmethyl)-5-[(2-methylpyridin-4-yl)ethynyl]-1H-benzotriazole] | 43 nM |
| FC1(C#Cc2ccc3c(nnn3CC3CC3)c2Br)CCNCC1 [Example 4, 4-bromo-1-(cyclopropylmethyl)-5-[(4-fluoropiperidin-4-yl)ethynyl]-1H-benzotriazole] | 1220 nM |
| FC(F)(F)c1c(C#Cc2ccncc2)ccc2c1nnn2CC1CC1 [Example 35, 1-(cyclopropylmethyl)-5-(pyridin-4-ylethynyl)-4-(trifluoromethyl)-1H-benzotriazole] | 12 nM |
| Cc1ccc(C#Cc2ccc3c(nnn3CC3CC3)c2Cl)cn1 [Example 17, 4-chloro-1-(cyclopropylmethyl)-5-[(6-methylpyridin-3-yl)ethynyl]-1H-benzotriazole] | 140 nM |
| CC(C)(C)OC(=O)N1CCC(F)(C#Cc2ccc3c(nnn3CC3CC3)c2Br)CC1 [Example 3] | 414 nM |
| FC(F)(F)c1c(C#Cc2cccnc2)ccc2c1nnn2CC1CC1 [Example 33, 1-(Cyclopropylmethyl)-5-(pyridin-3-ylethynyl)-4-(trifluoromethyl)-1H-benzotriazole] | 4.8 nM |
| COc1cc(C#Cc2ccc3c(nnn3CC3CC3)c2Cl)ccn1 [Example 28, 4-chloro-1-(cyclopropylmethyl)-5-[(2-methoxypyridin-4-yl)ethynyl]-1H-benzotriazole] | 227 nM |
| Cc1ncccc1C#Cc1ccc2c(nnn2CC2CC2)c1Cl [Example 16, 4-chloro-1-(cyclopropylmethyl)-5-[(2-methylpyridin-3-yl)ethynyl]-1H-benzotriazole] | 50 nM |
| Nc1cc(C#Cc2ccc3c(nnn3CC3CC3)c2Cl)ccn1 [Example 29, 4-{[4-chloro-1-(cyclopropylmethyl)-1H-benzotriazol-5-yl]ethynyl}pyridin-2-amine] | 31 nM |
| O=Cc1cncc(C#Cc2ccc3c(nnn3CC3CC3)c2Cl)c1 [Example 15, 5-{[4-chloro-1-(cyclopropylmethyl)-1H-benzotriazol-5-yl]ethynyl}pyridine-3-carbaldehyde] | 56 nM |
| Clc1cc(C#Cc2ccc3c(nnn3CC3CC3)c2Cl)ccn1 [Example 26, 4-chloro-5-[(2-chloropyridin-4-yl)ethynyl]-1-(cyclopropylmethyl)-1H-benzotriazole] | 299 nM |
| Cc1ccncc1C#Cc1ccc2c(nnn2CC2CC2)c1Cl [Example 6, 4-Chloro-1-(cyclopropylmethyl)-5-[(4-methylpyridin-3-yl)ethynyl]-1H-benzotriazole] | 50 nM |
| FC(F)(F)c1c(C#Cc2ccccc2)ccc2c1nnn2CC1CC1 [Example 34, 1-(cyclopropylmethyl)-5-(phenylethynyl)-4-(trifluoromethyl)-1H-benzotriazole] | 34 nM |
| COc1cncc(C#Cc2ccc3c(nnn3CC3CC3)c2Cl)c1 [Example 20, 4-chloro-1-(cyclopropylmethyl)-5-[(5-methoxypyridin-3-yl)ethynyl]-1H-benzotriazole] | 50 nM |
| CC(C)(C)Cn1nnc2c(Br)c(C#CC3CCN(CC(F)(F)F)CC3)ccc21 [Example 5, 4-bromo-1-(2,2-dimethylpropyl)-5-{[1-(2,2,2-trifluoroethyl)piperidin-4-yl]ethynyl}-1H-benzotriazole] | 123 nM |
| CC(C)(C)Cn1nnc2c(Br)c(C#CC3CCNCC3)ccc21 [Example 2, 4-bromo-1-(2,2-dimethylpropyl)-5-(piperidin-4-ylethynyl)-1H-benzotriazole] | 2710 nM |
